Measured values as given in PMC10720248 (Frontiers in Chemistry, 2023).

Test system: TLBro
Details: pH 8.0, 37°C, 10 mM Tris-HCl, 100 mM NaCl, 10 mM CaCl2

## N=C(N)NCCCC(NC(=O)c1ccccc1)C(=O)Nc1ccc([N+](=O)[O-])cc1 (racemic) [DL-BAρNA, N-benzoyl-L-arginine-ρ-nitroanilide]
  Km: 850 µM
